Counter-ions that a name gives are not always drawn.
What was measured:
[1] = rat, in vivo, po; cited from earlier work
[2] = system: SH-SY5Y neuroblastoma cells; assay: MTT cell viability assay, Aβ(25–35)-induced neurotoxicity; assay type: cell-based; conditions: Aβ(25–35) 25 μM
Protocol: Cells were cultured in MEM supplemented with 10% heat-inactivated defined FBS, and an antibiotic mixture of 100 units/mL of penicillin and 100 μg/mL streptomycin, and grown at 37 °C in a humid atmosphere with 5% CO2.
Following the treatment, cell viability was assessed using MTT reduction assay. After adding 10 μL/well of MTT (5 mg/L) and incubating for 4 h, the supernatants were removed and 100 μL of DMSO was added in wells. After 1 h incubation at room temperature in the microshaker, the absorbance of the sample was measured by the microplate spectrophotometer reader (Molecular Devices, Sunnyvale, CA, USA) at 570 nm. The cell viability rate (%) was calculated as the absorbance of treated cells divided by that of control cells. The viability of the control cells was defined as 100%. Three independent experiments were performed in triplicate.

Compound | donepezil excreted into urine [1] [%] | reduction of cell viability compared to vehicle treatment [2] [%]
COc1cc2c(cc1OC)C(=O)C(CC1CCN(Cc3ccccc3)CC1)C2 (centres unmarked) [DNP, Donepezil hydrochloride] | 1.52 | –
Aβ(25–35): β-amyloid fragment used to induce neurotoxicity in SH-SY5Y cells (GSNKGAIIGLM; Amyloid-beta protein 42; UniProt P05067 696-706, looked up, fragment) | – | 36.0
